According to patent EP0194571A1, “Heterocyclic disulfides, process for their preparation and pharmaceutical preparations containing them” (HOECHST AKTIENGESELLSCHAFT, priority 1985, dated 1986):

Assays:
[1] = test system: Candida albicans; assay: Therapeutic treatment of a chronic Candida albicans infection (germ counts in urine and kidneys, kidney necrosis); type: in vivo, Balb/c-Mäuse; details: Tag 30, 60 mg/kg i.p. Tag 3-10
Method: Bei der therapeutischen Behandlung einer chronischen Candida albicans Infektion wurden weibliche Balb/c-Mäuse (15/Gruppe) am Tag 0 intravenös mit Candida albicans (1 x 10^5 CFU/Maus) infiziert. Nach erfolgter Infektion wurden die Tiere an 8 aufeinanderfolgenden Tagen (Tag 3 - 10) mit jeweils 60 mg/kg der Prüfsubstanz (Verbindung nach Ausführungsbeispiel 8) intraperitoneal behandelt. Den Kontrolltieren wurde physiologische Kochsalzlösung injiziert. An den Tagen 8, 14 und 21 wurden den Tieren Urin entnommen und die Keimzahl bestimmt. Am Tag 30 wurden die Tiere getötet und die Keimzahl und die Nekrosenbildung der Nieren bestimmt. Die Tabelle 6 zeigt, daß die Prüfsubstanz bei therapeutischer Gabe deutlich alle Parameter der chronischen Candida albicans Infektion (Keimzahl in Urin und Nieren und Nekrosenbildung) reduziert und damit die Erkrankung therapeutisch beeinflußt. Während bei den Kontrolltieren sich zu einem hohen Prozentsatz Keime im Urin nachweisen lassen, wird bei den behandelten Tieren die Keimzahl signifikant erniedrigt.
Auch die Keimbesiedlung der Nieren wird durch die Therapie von 63 % auf 27 % reduziert, bei einer gleichzeitigen Verringerung der Nekrosenbildung von 87 % auf 10 %.

[2] = test system: Candida albicans; assay: Resistance against Candida albicans infection, prophylactic treatment, survival time; type: in vivo, Balb/c-Mäuse; details: 2 x 60 mg/kg/Tag intraperitoneal over 4 days, i.v. infection 24 h later with 5 x 10^5 CFU/Maus, control 9,7 Tagen
Method: Balb/c-Mäuse wurden über 4 Tage in einer Dosierung von 2 x 60 mg/kg/Tag intraperitoneal mit der Prüfsubstanz (Verbindung nach Ausführungsbeispiel 8) behandelt. 24 Stunden nach der letzten Gabe der Prüfsubstanz werden diese Tiere und die Kontrolltiere, denen physiologische Kochsalzlösung in gleichen Volumina und Zeitabständen verabreicht worden war, mit Candida albicans intravenös infiziert (5 x 10^5 CFU/Maus). Aus der Absterberate nach der Infektion lassen sich entsprechend die mittleren Überlebenszeiten berechnen. Die Tiere der Kontrollgruppe sterben zu 50 % nach 9,7 Tagen, die mit der Prüfsubstanz behandelte Gruppe zeigte eine mittlere Überlebenszeit von 16,1 Tagen. In dem gewählten Applikationsschema mit den entsprechenden Dosierungen (prophylaktische Verabreichung) induziert die Prüfsubstanz eine signifikante Erhöhung der Resistenz der Balb/c-Maus gegen Candida albicans.
Wie in Experiment 3a beschrieben, wurden Balb/c-Mäuse mit den erfindungsgemäßen Verbindungen behandelt.
Wie Tabelle 9 zeigt, steigt die mittlere Überlebenszeit der Mäuse nach C. albicans Infektion, verglichen mit einer unbehandelten Kontrollgruppe, signifikant an.

Cc1nc(SSc2nc(C)c(CC(=O)O)s2)sc1CC(=O)O [Beispiel 8, Bis-(5-Carboxymethyl-4-methyl-thiazol-2-yl)-disulfid]
Keimbesiedlung der Nieren ([1]; control 63 %): 27%
Nekrosenbildung ([1]; kidneys, control 87 %): 10%
mittlere Überlebenszeit [2]: 16,1 Tagen
